In BindingDB's records for doi:10.1021/jm049478u (Johnson & Johnson Pharmaceutical Research & Development, 2005):
pIC50: −log10 of the molar value.

Biological target: Glycogen synthase kinase-3 beta (Oryctolagus cuniculus)
Experiment: Inhibition of rabbit Glycogen synthase kinase-3 beta

SMILES: CN(C)CCCn1nc(C2=C(c3cn(-c4ccccc4)c4ccccc34)C(=O)NC2=O)c2ccccc21 [3-[1-(3-Dimethylamino-propyl)-1H-indazol-3-yl]-4-(1-phenyl-1H-indol-3-yl)-pyrrole-2,5-dione]
- pIC50: 6.57
